# Measured values taken from patent US3937829A, “Medicinal preparation for treatment of various forms of leprosy” (priority 1973, dated 1976).
# Experiments:
# [1] = system: Mycobacterium leprae; assay: clinical experiments on 99 leprosy patients, therapeutic effect; format: in vivo, human
# [2] = toxicity with respect to warm-blooded animals
# [3] = system: lymphocytes of the human peripheral blood; assay: influence upon the synthesis of RNA in lymphocytes; format: cell-based
# From the text: This may be considered as an evidence of possible differentiation of the lymphocytes or of potentiation of their specific function under the effect of the preparation.
# [4] = human, in vivo
# [5] = system: lymphocytes; assay: intracellular metabolism, RNA quantity in a cell and phagocytosis; format: cell-based, human
# [6] = solubility and reaction of aqueous solutions; format: physicochemical
# Procedure: (§1) The preparation is soluble in diluted alkalis, dimethylformamide and dimethysulfoxide. Aqueous solutions of the preparation give an acid reaction. M.p. of the preparation lies at 233°-234°C, at temperatures above 235°C it decomposes; the preparation withstands heating at 150°C during 2 hours, at 100°C during 5 hours without decomposition.
# [7] = thermal stability (heating); format: physicochemical
# Procedure: as §1
# [8] = storage stability; format: physicochemical
# From the text: The medicinal preparation according to the invention for treatment of various forms of leprosy is stable when under long-term storage.
# [9] = concentration of sulfonic preparations in the blood during treatment; format: in vivo
# Procedure: When determining the concentration of sulfonic preparations in the blood during treatment with diaminodiphenylsulfone, sulphetrone and the inventive preparations, it was observed that the concentration of the inventive preparation is twelve times as high as that of diaminodiphenylsulfone, both being administered as a powder at a dose of 0.1 g s.i.d. Futhermore, Injection of 2 ml of a 10 percent solution of the inventive preparation gave a concentration in the blood four times that which resulted from the introduction of 1 ml of 15-10 percent solution of sulphetrone.
# [10] = clinico-biochemical data and blood findings in leprosy patients; format: in vivo, human
# [11] = toxico-biological action during a three-month period (biochemical and histomorphological analyses); format: in vivo, white mice, rats and cats; conditions: compared to control animals
# From the text: Toxico-biological action of the preparation was studied in animals of the three species, viz., white mice, rats and cats. As a result, it was established that introduction of the medicinal preparation into an animal's organism during a three-month period provokes no changes, according to the data of biochemical and histomorphological analyses, in the internal organs, endocrine glands, brain, nerves and blood as compared to the control animals.
compound,measurement,setting,value
"Cc1[nH]c(=O)[nH]c(=O)c1S(=O)(=O)Nc1ccc(S(=O)(=O)c2ccc(NS(=O)(=O)c3c(C)[nH]c(=O)[nH]c3=O)cc2)cc1 [preparation, p,-p-bis(2,4-dioxy-6-methylpyrimidinyl-5-sulfonamido)diphenylsulfone]",recurrence of the disease,"[1]; 36 patients dismissed for ambulant therapy, following four years",None of the 36 patients
same,therapeutic effect in patients resistant to sulfonic antileprotic preparations,[1]; all patients resistant to sulfonic antileprotic preparations,good therapeutic effect
same,transformation of the lepromatous form into the tuberculoid form,[1]; histological examinations during the course of treatment,7 patients
same,start of the regress of the disease,"[1]; human, in vivo",3-6 weeks
same,"leprous reactions, neurites, inflammatory processes of the mucous membranes",[1]; in the course of treatment,disappeared
same,character of the regress of the disease,"[1]; infiltrates, lepromas, causative agent, fibrosis","resolution of infiltrates and lepromas, appearance of a great amount of granular forms of the causative agent and bacterial decomposition, as well as occurrence of a sharply marked fibrosis"
same,effect in patients resistant to sulfonic or other antileprotic therapy,[1]; patients resistant to sulfonic or some other antileprotic therapy,effective
same,LD50,[2]; in vivo,2600 mg/kg
same,toxicity relative to diaminodiphenylsulfone,"[2]; white mice, rats, cats, vs diaminodiphenylsulfone",one-fifth
same,"toxicity and effect on protective power, as concluded from RNA synthesis",[3]; increased immune response,non-toxic and acts as a stimulant of the protective power of the organisms
same,synthesis of RNA in lymphocytes,[3]; lymphocytes of the human peripheral blood,promotes the synthesis of RNA
same,side effects,[4],none of the patients was found to suffer from any side effect
same,intracellular metabolism,[5],promotes the processes of intracellular metabolism
same,quantity of RNA in a cell,[5],enhances the quantity of RNA in a cell
same,differentiation of lymphocytes and phagocytosis,[5]; lepromatous form of leprosy,easier differentiation of the lymphocytes into phagocytic forms and to the completion of phagocytosis
same,solubility in aqueous novocain solution,[6]; 0.1-1-percent aqueous novocain solution,sparingly soluble
same,reaction of aqueous solutions,[6]; aqueous solutions,acid reaction
same,solubility in diluted alkalis,[6]; diluted alkalis,soluble
same,solubility in dimethylformamide,[6]; dimethylformamide,soluble
same,solubility in dimethysulfoxide,[6]; dimethysulfoxide,soluble
same,solubility in ethyl alcohol,[6]; ethyl alcohol,insoluble
same,solubility in physiological saline,[6]; physiological saline,sparingly soluble
same,solubility in water,[6]; water,sparingly soluble
same,solubility,"[6]; water, solutions, read-out: concentration of the active principle above which the substance precipitates",> 120 mg/mL
same,decomposition temperature,[7],above 235 °C
same,withstands heating without decomposition,[7]; 100°C,5 h
same,withstands heating without decomposition,[7]; 150°C,2 h
same,retention of properties on storage,"[8]; darkness, 18°-25°C, 5 years","retain the appearance, melting point, IR-spectrum data, solubility and pH value of an aqueous solution"
same,storage stability,[8]; long-term storage,stable
same,concentration in the blood relative to sulphetrone,[9]; 2 ml of 10 percent solution injected vs 1 ml of 15-10 percent solution of sulphetrone,four
same,concentration in blood relative to diaminodiphenylsulfone,"[9]; both as a powder, 0.1 g s.i.d.",twelve
same,anabolic effect,[10]; clinico-biochemical data,less manifested
same,antipyretic effect,[10]; clinico-biochemical data,sharply pronounced
same,amount of erythrocytes,[10]; in the course of treatment,increased amount of erythrocytes
same,percentage of hemoglobin,[10]; in the course of treatment,higher percentage of hemoglobin
same,protein metabolism,[10]; in the course of treatment,normalized protein metabolism
same,"changes in internal organs, endocrine glands, brain, nerves and blood",[11],no changes
